Measured values reported in patent US9516824B2, “Method for modulating the number of archesporial cells in a developing anther” (The Board of Trustees of the Leland Stanford Junior …, priority 2012, dated 2016).
Entries after “also recorded” stand apart in the source; their conditions may differ.

What was measured:
maize anthers [1] = experiment: Oxygen tension / ROS manipulation of the tassel airspace (gas by hose or needle, chemical injection): locule cell counts and SPL/EN bilayer progression by confocal imaging; details: for AR specification / AR cell counts compared to puncture controls: injected into tassel airspace: 1 mM H2O2, 10 mM KI, 200 μM PTIO, 48 h prior to dissection; for AR specification / AR cell counts compared to puncture controls / somatic bilayer formation / development / AR morphological differentiation: 100 μM L-NNA, 20 μM SNP; for somatic bilayer formation / development: injected: 1 mM H2O2, 200 μM PTIO, compared to puncture control and untreated; for peripheral counts compared to needle puncture control / total L2 counts compared to needle puncture control: injection of 1 mL of 1 mM H2O2 or 10 mM KI; for AR morphological differentiation: injected: 200 μM PTIO; for SPL/EN bilayer (somatic niche) formation: gas treatment by hose or needle, 24 or 48 h; for peripheral somatic cell counts: late stages after 48 hour gas exposure
Description: Fertile W23 inbred anthers were stained with propidium iodide and imaged in Z-stack using a Leica SP5 confocal microscope (6). The ontogeny of locular cell types was cataloged over ˜2.5 days as anthers grew in length from 100 to 300 μm. […] The morphological characteristics of pre-meiotic cells are well established (18).
N2 or O2 gas was administered through hoses threaded into the leaf whorl (FIG. 15B). […] Alternatively, nitrogen, oxygen, or compressed air (20% O2) were administered by connecting gas lines to a needle inserted into the tassel airspace (FIGS. 15, C and D). In all experiments, a low flow of gas was administered over a 24 (A619) or 48 hour period (W23). Total locule cells (FIGS. 2, B, H, and M), peripheral somatic cells (FIGS. 2, C, I, and N), and central AR cells (FIGS. 2, D, J, and O) were quantified.
Confocal imaging, and EdU and PI staining were performed as described previously (6). Oxygen probe was an Oxygraph Tx3 (NTH-Pst1-L5-NS40-0.8-YOP) obtained from Presens (Regensburg, Germany). All chemicals were obtained from Sigma Chemical Co. (St. Louis, Mo.) and dissolved in water at the indicated molarities and injected using a 26 gauge needle into the airspace surrounding the immature tassel.

maize anthers [2] = experiment: Ectopic archesporial (AR) cell formation after reducing or oxidizing treatments; format: in vivo; details: for ectopic AR location by CT: internal (near or in the CT and VT); for # having ectopic AR: number of anthers; for ectopic AR location by EPI: superficial (near or on the EPI)
[3] = fertile genotype, listed as N2 (direct)
[4] = fertile genotype, listed as N2 (hose)
[5] = fertile, needle trial, 48 h gas treatment
[6] = fertile genotype, listed as O2 (direct)
[7] = fertile genotype, listed as O2 (hose)

SMILES	ectopic AR location by CT (maize anthers [2]; fertile genotype)	# having ectopic AR (maize anthers [2]; fertile genotype)	ectopic AR location by EPI (maize anthers [2]; fertile genotype)	ectopic AR location by CT (maize anthers [2]; mac1 genotype)	# having ectopic AR (maize anthers [2]; mac1 genotype)	ectopic AR location by EPI (maize anthers [2]; mac1 genotype)	AR specification in msca1 anthers (maize anthers [2])	ectopic AR location by CT (maize anthers [2]; msca1 genotype)	# having ectopic AR (maize anthers [2]; msca1 genotype)	ectopic AR location by EPI (maize anthers [2]; msca1 genotype)	AR count (treatment effect) (maize anthers [1]; fertile genotype)	SPL/EN timing (treatment effect) (maize anthers [1]; fertile genotype)	AR specification / AR cell counts compared to puncture controls (maize anthers [1])	somatic bilayer formation / development (maize anthers [1])	AR count (treatment effect) (maize anthers [1]; mac1 genotype)	AR per event (average count of ectopic AR cells in each instance) (maize anthers [2]; fertile genotype)	AR count (treatment effect) (maize anthers [1]; msca1 genotype)	niche - forming (periclinal divisions generating EN/SPL-like bilayer around ectopic AR) (maize anthers [2]; fertile genotype)	also measured
c1ccc2c(c1)[I+]c1ccccc1-2 [DPI, Diphenylene iodonium]	–	–	–	–	–	–	–	–	–	–	–	–	–	–	–	–	–	–	effect on tassel tissues (maize anthers [1]; injected into tassel airspace): complete degeneration of the tassel tissues
OO [H2O2, hydrogen peroxide]	0	0	0	0	0	0	lacked AR	0	0	0	fewer	delayed	lowered AR cell counts	inhibited subsequent somatic bilayer formation	extra	–	–	–	AR per event (average count of ectopic AR cells in each instance) (maize anthers [2]; msca1 genotype): 2; niche - forming (periclinal divisions generating EN/SPL-like bilayer around ectopic AR) (maize anthers [2]; msca1 genotype): yes; peripheral counts compared to needle puncture control (maize anthers [1]): greatly reduced; total L2 counts compared to needle puncture control (maize anthers [1]): greatly reduced
[I-].[K+] [KI]	0	2	2	–	0	0	caused AR specification	–	6	5	extra	early	dramatically promoted AR specification	–	extra	7	extra	–	AR per event (average count of ectopic AR cells in each instance) (maize anthers [2]; msca1 genotype): 3; percent of treated anthers having AR cells (maize anthers [2]; msca1 mutant, 20 μM SNP or KI injected): 9.5%; AR:total L2 ratios (maize anthers [1]; 10 mM KI injected): increased AR:total L2 ratios; peripheral counts compared to needle puncture control (maize anthers [1]): did not alter; total L2 counts compared to needle puncture control (maize anthers [1]): did not alter
N=C(NCCC[C@H](N)C(=O)O)N[N+](=O)[O-] [L-NNA, N^G-nitro-L-Arginine]	1	1	0	0	0	0	lacked AR	0	0	0	fewer	delayed	slightly repressed; also recorded: slightly suppressed AR counts	dramatically delayed	extra	2	–	yes	AR morphological differentiation (maize anthers [1]): slowed the morphological differentiation of central AR cells; also recorded: delayed AR morphological differentiation
N#N [N2, nitrogen]	0	–	–	2	7	5	–	0	0	0	extra	early	–	–	extra	5	none	–	# having ectopic AR (maize anthers [2]; [3]): 4; # having ectopic AR (maize anthers [2]; [4]): 0; ectopic AR location by EPI (maize anthers [2]; [3]): 4; ectopic AR location by EPI (maize anthers [2]; [4]): 0; ectopic AR formation (maize anthers [2]; hose protocol): did not cause ectopic AR in any anthers; AR per event (average count of ectopic AR cells in each instance) (maize anthers [2]; mac1 genotype): 3; AR specification and AR cell counts compared to untreated fertile anthers (maize anthers [1]; fertile, all three gas protocols (hose 48 h W23, hose 24 h A619, needle)): early specification and excess AR cells; AR:total L2 ratio (maize anthers [1]; fertile, gas treatment): elevated ratios; SPL/EN bilayer (somatic niche) formation (maize anthers [1]; fertile): formed early; also recorded: precocious bilayer formation; central AR as fraction of total L2 cells (maize anthers [1]; fertile, gas treatment, early stages): up to 25%; peripheral somatic cell counts (maize anthers [1]; fertile): increased peripheral somatic cell counts; AR counts (maize anthers [1]; [5]): Excess presumptive AR cells
O=O [O2, oxygen]	–	–	–	0	0	0	–	0	0	0	–	–	–	–	extra	3.7	none	~half	ectopic AR location by CT (maize anthers [2]; [6]): 12; ectopic AR location by CT (maize anthers [2]; [7]): 0; # having ectopic AR (maize anthers [2]; [6]): 18; # having ectopic AR (maize anthers [2]; [7]): 0; ectopic AR location by EPI (maize anthers [2]; [6]): 6; ectopic AR location by EPI (maize anthers [2]; [7]): 0; AR count (treatment effect) (maize anthers [1]; [6]): extra; SPL/EN timing (treatment effect) (maize anthers [1]; [6]): delayed; AR count (treatment effect) (maize anthers [1]; [7]): fewer; SPL/EN timing (treatment effect) (maize anthers [1]; [7]): late; SPL/EN bilayer (somatic niche) formation (maize anthers [1]; fertile): delayed; AR specification (maize anthers [1]; fertile, hose gas treatment): repressed AR specification; AR counts (maize anthers [1]; fertile, hose, 24 hour exposure): significantly fewer AR than either untreated or N2; central AR counts (maize anthers [1]; fertile, hose, 48 hour treatment): far lower than N2; peripheral somatic cell counts (maize anthers [1]; fertile): increased peripheral somatic cells in the late stages; AR counts (maize anthers [1]; [5]): elevated in the needle trial, less than compressed air and dramatically less than nitrogen
CC1(C)N([O])C(c2ccccc2)=[N+]([O-])C1(C)C [PTIO, 2-Phenyl-4,4,5,5-tetramethylimidazoline-1-oxyl-3-oxide]	3	4	1	0	0	0	lacked AR	0	0	0	fewer	delayed	slightly repressed; also recorded: slightly suppressed AR counts	dramatically delayed	extra	5	–	yes	AR morphological differentiation (maize anthers [1]): slowed the morphological differentiation of central AR cells; also recorded: delayed AR morphological differentiation
